± gives the uncertainty stated by the source.
Legend:
[1] = system: Klebsiella pneumoniae ATCC 13882; experiment: final pH-related absorbance (A557-A630) after 24 h (absorbance units); higher = more ureolysis; extreme values may be limits of the assay
Summary of the method: (§1)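 In triplicate sealed 96-well plates, buffered 40 mM urea, phenol red and inhibitor (three stock dilutions, not preincubated) received resuspended Klebsiella pneumoniae ATCC 13882 cells from an overnight M9U culture, giving a final 200 µl at OD600 0.05. Plates were read at A557 and OD630 every 15 min over 24 h. Values, as mean±SD, are growth as the final optical density and ureolysis as the final absorbance difference, the onset of the phenol red rise and a rate from a Gompertz-equation fit.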

[2] = system: Klebsiella pneumoniae ATCC 13882; experiment: rate of pH (A557-A630) increase, Gompertz fit (10^-4 s-1); higher = faster ureolysis; extreme values may be limits of the assay
Summary of the method: as §1

[3] = system: Klebsiella pneumoniae ATCC 13882; experiment: onset of ureolytic pH increase; higher = more delayed ureolysis (inhibition)
Summary of the method: as §1

[4] = system: Klebsiella pneumoniae ATCC 13882; experiment: final OD630 (growth) after 24 h; higher = more bacterial growth; extreme values may be limits of the assay
Summary of the method: as §1

SMILES | final pH-related absorbance ([1]; 0.1 mM) | final pH-related absorbance ([1]; 1 mM) | final pH-related absorbance ([1]; 10 mM) | rate of pH ([2]; 0.1 mM) | rate of pH ([2]; 1 mM) | rate of pH ([2]; 10 mM) | onset of ureolytic pH increase ([3]; 0.1 mM) | onset of ureolytic pH increase ([3]; 1 mM) | onset of ureolytic pH increase ([3]; 10 mM) | final OD630 ([4]; 0.1 mM) | final OD630 ([4]; 1 mM) | final OD630 ([4]; 10 mM) | final pH-related absorbance ([1]; 0.017 mM) | final pH-related absorbance ([1]; 0.167 mM) | rate of pH ([2]; 0.017 mM) | rate of pH ([2]; 0.167 mM) | onset of ureolytic pH increase ([3]; 0.017 mM) | onset of ureolytic pH increase ([3]; 0.167 mM) | final OD630 ([4]; 0.017 mM) | final OD630 ([4]; 0.167 mM)
[F-].[Na+] [Sodium flouride] | 0.178 ± 0.0021 | 0 | 0 | 1.35 ± 0.025 | 0 | 0 | 733.1 ± 3.4 min | > 1500 min | > 1500 min | 0.408 ± 0.0001 | 0.368 ± 0.0081 | 0.335 ± 0.0025 |  |  |  |  |  |  |  | 
O=S([O-])[O-].[Na+].[Na+] [Sodium sulfite] | 0.461 ± 0.054 | 0.373 ± 0.006 | 0.273 ± 0.011 | 2.1 ± 0.24 | 1.883 ± 0.013 | 0.984 ± 0.011 | 420 ± 13 min | 444 ± 24 min | 593 ± 7.5 min | 0.477 ± 0.013 | 0.504 ± 0.027 | 0.416 ± 0.004 |  |  |  |  |  |  |  | 
O=S(=O)(O)SSS(=O)(=O)O [Sodium tetrathionate dihydrate] | 0.569 ± 0.076 | 0.492 ± 0.1 | 0.5 ± 0.12 | 3.64 ± 1.1 | 3.32 ± 1.5 | 3.97 ± 1.7 | 433 ± 21 min | 434 ± 22 min | 430 ± 23 min | 0.532 ± 0.027 | 0.541 ± 0.021 | 0.554 ± 0.021 |  |  |  |  |  |  |  | 
N#C[S-].[Na+] [Sodium thiocyanate] | 0.152 ± 0.002 | 0.144 ± 0.0019 | 0.123 ± 0.0011 | 1.61 ± 0.036 | 1.6 ± 0.048 | 0.0522 ± 0.0032 | 675.2 ± 3.9 min | 704 ± 10 min | 770 ± 19 min | 0.431 ± 0.003 | 0.445 ± 0.0004 | 0.403 ± 0.003 |  |  |  |  |  |  |  | 
O=S(O)(O)=S [Sodium thiosulfate] | 0.154 ± 0.0011 | 0.14 ± 0.0017 | 0.142 ± 0.011 | 2.09 ± 0.021 | 2.11 ± 0.025 | 2.2095 ± 0.0016 | 570 ± 6.7 min | 595.8 ± 5 min | 611 ± 7.8 min | 0.476 ± 0.0014 | 0.457 ± 0.0043 | 0.454 ± 0.011 |  |  |  |  |  |  |  | 
NS(=O)(=O)O [Sulfamic acid] | 0.166 ± 0.019 | 0.182 ± 0.011 | 0 | 2.17 ± 0.036 | 1.96 ± 0.055 | 0 | 561 ± 12 min | 535 ± 7.1 min | > 900 min | 0.506 ± 0.0081 | 0.515 ± 0.014 | 0 |  |  |  |  |  |  |  | 
O=C(OC[C@H]1O[C@@H](OC(=O)c2cc(O)c(O)c(OC(=O)c3cc(O)c(O)c(O)c3)c2)[C@H](OC(=O)c2cc(O)c(O)c(OC(=O)c3cc(O)c(O)c(O)c3)c2)[C@@H](OC(=O)c2cc(O)c(O)c(OC(=O)c3cc(O)c(O)c(O)c3)c2)[C@@H]1OC(=O)c1cc(O)c(O)c(OC(=O)c2cc(O)c(O)c(O)c2)c1)c1cc(O)c(O)c(OC(=O)c2cc(O)c(O)c(O)c2)c1 [Tannic acid] | 0.129 ± 0.0091 | 0.125 ± 0.0013 | 0 | 1.47 ± 0.091 | 1.282 ± 0.0068 | 0 | 605 ± 31 min | 641.6 ± 5.1 min | > 1500 min | 0.452 ± 0.0032 | 0.433 ± 0.0003 | 0 |  |  |  |  |  |  |  | 
NC(N)=S [Thiourea] | 0.271 ± 0.024 | 0.25 ± 0.0002 | 0.236 ± 0.014 | 2.27 ± 0.21 | 2.13 ± 0.083 | 1.94 ± 0.099 | 410 ± 18 min | 424 ± 12 min | 456 ± 13 min | 0.48 ± 0.0071 | 0.492 ± 0.012 | 0.483 ± 0.008 |  |  |  |  |  |  |  | 
O=C1C=CC(=O)C=C1 [p-benzoquinone] |  |  |  |  |  |  |  |  |  |  |  |  | 0.171 ± 0.0039 | 0 | 1.59 ± 0.027 | 0 | 681.1 ± 2 min | > 1500 min | 0.421 ± 0.011 | 0
Oc1ccc(Cl)cc1 [p-chlorophenol] | 0.162 ± 0.0043 | 0.09 ± 0.0059 | 0 | 1.5 ± 0.019 | 0.0559 ± 0.0036 | 0 | 732.7 ± 2.5 min | 935 ± 14 min | > 900 min | 0.42 ± 0.0062 | 0.401 ± 0.0036 | 0 |  |  |  |  |  |  |  | 

— the supplement of paper PMC7244745
